These results are taken from patent publication US9850283B2, “Macrocyclic inhibitors of the PD-1/PD-L1 and CD80(B7-1)/PD-L1 protein/protein interactions” (BRISTOL-MYERS SQUIBB COMPANY, priority 2013, dated 2017).

Test [1] deals with T1, Human PD-L1/PD-1 (Homo sapiens, UniProt Q9NZQ7).
T1 construct: made in house; host or cells: HEK293T
The test is described as follows: HTRF PD-1-Ig/PD-L1-His binding assay (human PD-L1). Conditions: cluster symbol; read-out: HTRF IC50 cluster. Put shortly: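 Soluble Fc-fused PD-1 and His-tagged PD-L1 (truncated before the transmembrane region) were combined in dPBS with 0.1% (w/v) BSA and 0.05% (v/v) Tween-20. Binding was read by HTRF using europium cryptate anti-Ig antibody (1 nM final) and APC anti-His antibody (20 nM final).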

Test [2] addresses T2, LK35.2-hPD-L1 cells / PE-labeled PD-1-Ig (Homo sapiens, UniProt Q9NZQ7).
T2 construct: expressed in transfected cells; host or cells: LK35.2 mouse B cell line
The test is described as follows: LK35.2-hPD-L1 cell binding high-content screening assay. Conditions: cluster symbol, read-out: CBA IC50 cluster. It counts as cell-based. A digest of the protocol:
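Fluorescent PD-1-Ig binding to PD-L1-expressing LK35.2 cells, imaged after washing. Conditions: 1 nM PE-PD-1-Ig, 37 °C, 1 h, RPMI with 10% fetal calf serum.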

The mark [3] stands for this setting: cell binding assay, cell line not given.
Where [4] appears, read: cell line of CBA not given (LK35.2-hPD-L1 or 293T-hPD-L1).

Like-named read-outs stand apart in the source and are kept apart here. Positions of bridges follow the written chain, without caps; N, C: chain ends. Non-standard residues stand in square brackets, D forms with d. Residues, ends and D or L forms follow the SMILES beside them. *: point of attachment. Hyp = O=C(O)[C@@H]1C[C@@H](O)CN1; NMeF = CN[C@@H](Cc1ccccc1)C(=O)O; 2Pal = N[C@@H](Cc1ccccn1)C(=O)O; AllylGly = C=CC[C@H](N)C(=O)O; NMeNle = CCCC[C@H](NC)C(=O)O; NMeS = CN[C@@H](CO)C(=O)O; dPip = O=C(O)[C@H]1CCCCN1; NMeA = CN[C@@H](C)C(=O)O; Nle = CCCC[C@H](N)C(=O)O; Orn = NCCC[C@H](N)C(=O)O; Dab = NCC[C@H](N)C(=O)O; Dap = NC[C@H](N)C(=O)O; Bn = c1ccc(C*)cc1; Sar = CNCC(=O)O

T1 sequence (Q9NZQ7 with tags, fused parts or gaps): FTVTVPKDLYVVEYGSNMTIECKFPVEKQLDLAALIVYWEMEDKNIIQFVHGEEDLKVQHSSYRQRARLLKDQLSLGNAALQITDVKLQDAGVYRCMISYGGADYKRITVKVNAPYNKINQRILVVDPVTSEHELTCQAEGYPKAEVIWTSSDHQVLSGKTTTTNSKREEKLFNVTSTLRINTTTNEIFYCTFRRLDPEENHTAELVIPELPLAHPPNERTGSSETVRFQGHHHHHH
T2 sequence (Q9NZQ7 19-290): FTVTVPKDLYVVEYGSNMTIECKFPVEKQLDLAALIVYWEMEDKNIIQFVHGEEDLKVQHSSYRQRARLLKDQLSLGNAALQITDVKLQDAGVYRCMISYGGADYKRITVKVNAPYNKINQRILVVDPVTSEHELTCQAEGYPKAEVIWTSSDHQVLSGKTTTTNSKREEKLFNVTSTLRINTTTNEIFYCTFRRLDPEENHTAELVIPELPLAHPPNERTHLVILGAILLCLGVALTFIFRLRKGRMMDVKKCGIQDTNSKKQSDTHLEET

With `CCCC[C@H]1C(=O)N(C)[C@@H](CCCC)C(=O)N[C@@H](CO)C(=O)N[C@H](C(=O)NCC(N)=O)CSCC(=O)N[C@@H](Cc2ccc(O)cc2)C(=O)N(C)[C@@H](C)C(=O)N[C@@H](CCN)C(=O)N2CCC[C@H]2C(=O)N[C@@H](Cc2c[nH]cn2)C(=O)N[C@@H](CCC(=O)O)C(=O)N2C[C@H](O)C[C@H]2C(=O)N[C@@H](Cc2c[nH]c3ccccc23)C(=O)N[C@@H](CO)C(=O)N[C@@H](Cc2c[nH]c3ccccc23)C(=O)N1C` [Example 5108] ({CH2CO}-Y[NMeA][Dab]PHE[Hyp]WSW[NMeNle][NMeNle]SCG-NH2; thioether N-14), the IC50 (commonly the concentration that gives 50% inhibition) in test [1] was in the range of 6.76 to 30.3 nM; in test [2] (setting [3]), 4.78 to 72.9 nM.
On to `CCCC[C@H]1C(=O)N(C)[C@@H](CCCC)C(=O)N[C@@H](C)C(=O)N[C@H](C(=O)NCC(N)=O)CSCC(=O)N[C@@H](Cc2ccc(O)cc2)C(=O)N(C)[C@@H](C)C(=O)N[C@@H](CC(=O)O)C(=O)N2CCC[C@H]2C(=O)N[C@@H](Cc2cnc[nH]2)C(=O)N[C@@H](CC(C)C)C(=O)N2C[C@H](O)C[C@H]2C(=O)N[C@@H](Cc2c[nH]c3ccccc23)C(=O)N[C@@H](CO)C(=O)N[C@@H](Cc2c[nH]c3ccccc23)C(=O)N1C` [Example 1165], for which the results for the IC50 in test [1] and in test [2] (setting [4]) were 0.385 to 6.74 nM and 0.158 to 4.71 nM, respectively.
Consider `CCCC[C@H]1C(=O)N(C)[C@@H](CCCC)C(=O)N[C@@H](CCN)C(=O)N[C@H](C(=O)NCC(N)=O)CSCC(=O)N[C@@H](Cc2ccc(O)cc2)C(=O)N(C)[C@@H](C)C(=O)N[C@@H](CC(=O)O)C(=O)N2CCC[C@H]2C(=O)N[C@@H](Cc2cnc[nH]2)C(=O)N[C@@H](CCC(=O)O)C(=O)N2C[C@H](O)C[C@H]2C(=O)N[C@@H](Cc2c[nH]c3ccccc23)C(=O)N[C@@H](CCN)C(=O)N[C@@H](Cc2c[nH]c3ccccc23)C(=O)N1C` [Example 5034] ({CH2CO}-Y[NMeA]DPHE[Hyp]W[Dab]W[NMeNle][NMeNle][Dab]CG-NH2; thioether N-14), for which the values for the IC50 in test [1] and in test [2] (setting [3]) were 0.385 to 6.74 nM and 0.158 to 4.71 nM, respectively.
`CCCC[C@H]1C(=O)N2CCCC[C@@H]2C(=O)N[C@@H](CC(=O)O)C(=O)N[C@@H](C(C)C)C(=O)N(C)[C@@H](Cc2ccccc2)C(=O)N[C@@H](Cc2ccc(O)cc2)C(=O)N(C)CC(=O)N[C@@H](Cc2c[nH]c3ccccc23)C(=O)N[C@@H](Cc2ccc(O)cc2)C(=O)N[C@@H](CC(C)C)C(=O)N[C@H](C(=O)NCC(N)=O)CSCC(=O)N[C@@H](Cc2ccccc2)C(=O)N(C)[C@@H](Cc2ccccc2)C(=O)N1C` [Example 3573] ({CH2CO}-F[NMeF][NMeNle][dPip]DV[NMeF]Y[Sar]WYLCG-NH2; thioether N-13): the values for the IC50 in test [1] and in test [2] (setting [3]) were 6.76 to 30.3 nM and 4.78 to 72.9 nM, respectively.
As for `CCCC[C@H]1C(=O)N(C)[C@@H](CCCC)C(=O)N[C@@H](CCCN)C(=O)N[C@H](C(=O)NCC(N)=O)CSCC(=O)N[C@@H](Cc2ccc(O)cc2)C(=O)N2CC(F)(F)C[C@H]2C(=O)N[C@@H](CC(N)=O)C(=O)N2CCC[C@H]2C(=O)N[C@@H](Cc2cnc[nH]2)C(=O)N[C@@H](CC(C)C)C(=O)N2C[C@H](O)C[C@H]2C(=O)N[C@@H](Cc2c[nH]c3ccccc23)C(=O)N[C@@H](CO)C(=O)N[C@@H](Cc2c[nH]c3ccccc23)C(=O)N1C` [Example 1174], the values for the half-maximal inhibitory concentration (IC50) in test [1] and in test [2] (setting [4]) were 0.385 to 6.74 nM and 0.158 to 4.71 nM, respectively.
On to `CCCC[C@H]1C(=O)N(C)[C@@H](CCCC)C(=O)N[C@@H](CCCNC(=N)N)C(=O)N[C@H](C(=O)NCC(N)=O)CSCC(=O)N[C@@H](Cc2ccc(O)cc2)C(=O)N(C)[C@@H](C)C(=O)N[C@@H](CC(N)=O)C(=O)N2CCC[C@H]2C(=O)N[C@@H](Cc2ccccn2)C(=O)N[C@@H](CC(C)C)C(=O)N2C[C@H](O)C[C@H]2C(=O)N[C@@H](Cc2c[nH]c3ccccc23)C(=O)N[C@@H](CO)C(=O)N[C@@H](Cc2c[nH]c3ccccc23)C(=O)N1C` [Example 7026] ({CH2CO}-Y[NMeA]NP[2Pal]L[Hyp]WSW[NMeNle][NMeNle]RCG-NH2; thioether N-14), for which the IC50 in test [1] was 6.76 to 30.3 nM; in test [2] (setting [3]), 4.78 to 72.9 nM.
For `CCCC[C@H]1C(=O)N(C)[C@@H](CCCC)C(=O)N[C@@H](CCCN)C(=O)N[C@H](C(=O)NCC(N)=O)CSCC(=O)N[C@@H](Cc2ccccc2)C(=O)N(C)[C@@H](C)C(=O)N[C@@H](CC(N)=O)C(=O)N2CCC[C@H]2C(=O)N[C@@H](Cc2cnc[nH]2)C(=O)N[C@@H](CC(C)C)C(=O)N(C)CC(=O)N[C@@H](Cc2c[nH]c3ccccc23)C(=O)N[C@@H](CO)C(=O)N[C@@H](Cc2c[nH]c3ccccc23)C(=O)N1C` [Example 1055] ({CH2CO}-F[NMeA]NPHL[Sar]WSW[NMeNle][NMeNle][Orn]CG-NH2; thioether N-14), the IC50 fell in the range of 6.76 to 30.3 nM in test [1] and 4.78 to 72.9 nM in test [2] (setting [4]).
In the case of `CC(C)C[C@@H]1NC(=O)[C@H](Cc2cnc[nH]2)NC(=O)[C@@H]2CCCN2C(=O)[C@H](CC(N)=O)NC(=O)[C@H](C)N(C)C(=O)[C@H](Cc2ccccc2)NC(=O)CSC[C@@H](C(=O)NCC(N)=O)NC(=O)[C@H](CCCNC(=N)N)NC(=O)[C@H](C)N(C)C(=O)[C@H](COCc2ccccc2)N(C)C(=O)[C@H](Cc2c[nH]c3ccccc23)NC(=O)[C@H](CO)NC(=O)[C@H](Cc2c[nH]c3ccccc23)NC(=O)CN(C)C1=O` [Example 6012] ({CH2CO}-F[NMeA]NPHL[Sar]WSW[NMeS](Bn)[NMeA]RCG-NH2; thioether N-14), the IC50 in test [1] fell in the range of 6.76 to 30.3 nM; in test [2] (setting [3]), 4.78 to 72.9 nM.
Turning to `CCCC[C@@H]1NC(=O)[C@H](CCCC)N(C)C(=O)[C@H](CCCC)N(C)C(=O)[C@H](Cc2c[nH]c3ccccc23)NC(=O)[C@H](CO)NC(=O)[C@H](Cc2c[nH]c3ccccc23)NC(=O)CN(C)C(=O)[C@H](CC(C)C)NC(=O)[C@H](Cc2cnc[nH]2)NC(=O)[C@@H]2CCCN2C(=O)[C@H](CC(N)=O)NC(=O)[C@H](C)N(C)C(=O)[C@H](Cc2ccccc2)NC(=O)CSC[C@@H](C(=O)NCC(N)=O)NC1=O` [Example 1071] ({CH2CO}-F[NMeA]NPHL[Sar]WSW[NMeNle][NMeNle][Nle]CG-NH2; thioether N-14), the results for the 50% inhibitory concentration (IC50) in test [1] and in test [2] (setting [4]) were over 30.5 nM and over 74.3 nM, respectively.
As for `CCCC[C@H]1C(=O)N(C)[C@@H](CCCC)C(=O)N[C@@H](CC(=O)O)C(=O)N[C@H](C(=O)NCC(N)=O)CSCC(=O)N[C@@H](Cc2ccc(O)cc2)C(=O)N(C)[C@@H](C)C(=O)N[C@@H](CC(=O)O)C(=O)N2CCC[C@H]2C(=O)N[C@@H](Cc2c[nH]cn2)C(=O)N[C@@H](CCCCN)C(=O)N2C[C@H](O)C[C@H]2C(=O)N[C@@H](Cc2c[nH]c3ccccc23)C(=O)N[C@@H](CCCCN)C(=O)N[C@@H](Cc2c[nH]c3ccccc23)C(=O)N1C` [Example 5096] ({CH2CO}-Y[NMeA]DPHK[Hyp]WKW[NMeNle][NMeNle]DCG-NH2; thioether N-14), the figures for the IC50 in test [1] and in test [2] (setting [3]) were 0.385 to 6.74 nM and 0.158 to 4.71 nM, respectively.
Take `CCCC[C@H]1C(=O)N(C)[C@@H](CCCC)C(=O)N[C@@H](CC(C)C)C(=O)N[C@H](C(=O)NCC(N)=O)CSCC(=O)N[C@@H](Cc2ccc(O)cc2)C(=O)N(C)[C@@H](C)C(=O)N[C@@H](CC(N)=O)C(=O)N2CCC[C@H]2C(=O)N[C@@H](CO)C(=O)N[C@@H](CCC(N)=O)C(=O)N2C[C@H](O)C[C@H]2C(=O)N[C@@H](Cc2c[nH]c3ccccc23)C(=O)N[C@@H](CO)C(=O)N[C@@H](Cc2c[nH]c3ccccc23)C(=O)N1C` [Example 5115] ({CH2CO}-Y[NMeA]NPSQ[Hyp]WSW[NMeNle][NMeNle]LCG-NH2; thioether N-14): the IC50 in test [1] is 0.385 to 6.74 nM; in test [2] (setting [3]), 0.158 to 4.71 nM.
Consider `CCCC[C@H]1C(=O)N(C)[C@@H](CCCC)C(=O)N[C@@H](CC(C)C)C(=O)N[C@H](C(=O)NCC(N)=O)CSCC(=O)N[C@@H](Cc2ccc(O)cc2)C(=O)N(C)[C@@H](C)C(=O)N[C@@H](CC(N)=O)C(=O)N2CCC[C@H]2C(=O)N[C@@H](CN)C(=O)N[C@@H](CC(C)C)C(=O)N2C[C@H](O)C[C@H]2C(=O)N[C@@H](Cc2c[nH]c3ccccc23)C(=O)N[C@@H](CO)C(=O)N[C@@H](Cc2c[nH]c3ccccc23)C(=O)N1C` [Example 5070] ({CH2CO}-Y[NMeA]NP[Dap]L[Hyp]WSW[NMeNle][NMeNle]LCG-NH2; thioether N-14), for which the IC50 is 0.385 to 6.74 nM in test [1] and 0.158 to 4.71 nM in test [2] (setting [3]).
The corresponding values for `C=CC[C@@H]1NC(=O)[C@H](Cc2c[nH]c3ccccc23)NC(=O)[C@@H]2C[C@@H](O)CN2C(=O)[C@H](CC(C)C)NC(=O)[C@H](Cc2cnc[nH]2)NC(=O)[C@@H]2CCCN2C(=O)[C@H](CC(N)=O)NC(=O)[C@H](C)N(C)C(=O)[C@H](Cc2ccc(O)cc2)NC(=O)CSC[C@@H](C(=O)NCC(N)=O)NC(=O)[C@H](CC=C)NC(=O)[C@H](CCCC)N(C)C(=O)[C@H](CCCC)N(C)C(=O)[C@H](Cc2c[nH]c3ccccc23)NC1=O` [Example 7019] ({CH2CO}-Y[NMeA]NPHL[Hyp]W[AllylGly]W[NMeNle][NMeNle][AllylGly]CG-NH2; thioether N-14) are 0.385 to 6.74 nM and 0.158 to 4.71 nM.
As to `CCCC[C@H]1C(=O)N(C)[C@@H](CCCC)C(=O)N[C@@H](CCCNC(=N)N)C(=O)N[C@H](C(=O)NCC(N)=O)CSCC(=O)N[C@@H](Cc2ccc(O)cc2)C(=O)N(C)[C@@H](C)C(=O)N[C@@H](CC(N)=O)C(=O)N2CCC[C@H]2C(=O)N[C@@H](Cc2cnc[nH]2)C(=O)N[C@@H](CCC(=O)O)C(=O)N2CCC[C@H]2C(=O)N[C@@H](Cc2c[nH]c3ccccc23)C(=O)N[C@@H](CO)C(=O)N[C@@H](Cc2c[nH]c3ccccc23)C(=O)N1C` [Example 1090] ({CH2CO}-Y[NMeA]NPHEPWSW[NMeNle][NMeNle]RCG-NH2; thioether N-14), the IC50 in test [1] lay within 0.385 to 6.74 nM; in test [2] (setting [4]), 0.158 to 4.71 nM.
